Consider ten molecules from US5856127A, “Antimicrobial peptides” (The Research Foundation of State University of New York, priority 1996, dated 1999).

Where a SMILES comes first, the peptide text is derived from it. Bounds are passed on as bounds.

The subject of data set [1] is Candida albicans. To be noted: against the yeast Candida albicans; cited from earlier work.
Data set [2] relates to Pseudomonas syringae. Description: MIC against bacteria (Pseudomonas syringae). Format: cell-based. To be noted: Collection PSS34, no visible lawn or colonies after 3 days. The protocol: (§1) Dilutions of peptides, prepared in sterile deionized water, were placed (20 μl aliquots) in Corning disposable sterile polystyrene ELISA plates (96 well, high binding) which had been pretreated with bovine serum albumin by rinsing each well with 200 μl of a 1.0 mg/ml solution.
(§2) Bacterial suspensions of A. tumefaciens, E. amylovora, and P. syringae were obtained from liquid cultures grown in Luria Broth (Atlas and Parks 1993). Cultures were grown at 25°C. on a rotary shaker (110 rpm) for 14 hr. Bacterial cell suspensions with an optical density between 0.7 and 0.85 at 600 nanometers (OD600) were used for assay inoculations. Dilutions of peptides were placed in the 96-well ELISA plates as described above. The final peptide concentrations tested were 0, 0.625, 1.25, 2.5, 5, 10, 15, 20, 25, 50, 100, and 250 μM. All tests were repeated 2 or more times. Controls without peptides were included with all tests. The MIC for bacterial cells was the lowest peptide concentration associated with no visible bacterial lawn or isolated colonies on the medium after 3 days in all the repeated tests.

Data set [3] relates to Cryphonectria parasitica. Nature of the data set: MIC against fungal conidia (Cryphonectria parasitica). Format: cell-based. Conditions: strain EP42, PDAmb pH 5.2, scored at 6 days. Here is the method: as §1
(§3) Media (PDAmb, pH 5.2) was prepared with deionized water, Difco potato dextrose broth (12 g/L), Sigma D,L-methionine (0.05 g/L), Sigma biotin (2 mg/L), and FisherBiotech low melting point agarose (20 g/L). Sterilized media was added to the wells to make a final volume of 100 μl and allowed to harden for 3 hr prior to inoculation with 10 μl of conidial suspension. Peptide concentrations tested were 0, 1.25, 2.5, 5, 10, 15, 20, 25, 50, 100, 150, 200, and 250 μM.
(§4) Fungal conidial suspensions were aseptically prepared from agar plate cultures of C. parasitica and S. musiva or liquid cultures for F. oxysporum f.sp. lycopersici. Conidia were suspended from agar plates with 10 ml sterile 1% Tween 20. All culture suspensions were filtered through four layers of sterile cheesecloth, collected in sterile 15 ml Falcon tubes, and centrifuged for 3 min at 1900×g. The pellets were then suspended in 10 ml sterile deionized water and centrifuged for 3 min at 1900×g. The "washed" pellets were suspended in 5 ml sterile deionized water. The conidial concentration was determined using a hemocytometer (Fisher ultra plane, Neubauer ruling) and then diluted to 1.0×10^4 conidia/ml.
(§5) Approximately 100 conidia (10 μl) were transferred to each microtitre plate well. Microtitre plates were incubated in ambient light at room temperature in a moist chamber (plastic box containing wet paper towels and covered with clear plastic wrap). Tests with S. musiva used continuous light. Plates were scored for growth at 6 days and photographed. All tests were repeated 4 or more times. Controls without peptides were included with all tests.

Data set [4] relates to Septoria musiva. Nature of the data set: MIC against fungal conidia (Septoria musiva). Format: cell-based. To be noted: strain 92-49C, PDAmb pH 5.2, scored at 6 days, total prevention of germination. Here is the method: as §1, §3, §4, §5
The subject of data set [5] is Erwinia amylovora. Description: MIC against bacteria (Erwinia amylovora). The data set is classed as cell-based. To be noted: Collection 88-100, no visible lawn or colonies after 3 days. Here is the method: as §1, §2
The subject of data set [6] is Agrobacterium tumefaciens. Nature of the data set: MIC against bacteria (Agrobacterium tumefaciens). The data set is classed as cell-based. To be noted: wild-type strain Bo542, no visible lawn or colonies after 3 days. Here is the method:
as §1, §2

Data set [7] deals with Fusarium oxysporum. Nature of the data set: MIC against fungal conidia (Fusarium oxysporum). Format: cell-based. To be noted: f. sp. lycopersici strain 73, PDAmb pH 5.2, scored at 6 days. Here is the method:
as §1, §3, §4, §5

Data set [8] concerns selected filamentous fungi. Nature of the data set: Activity against filamentous fungi relative to magainin (applicants' observation). To be noted: three amino acid substitution versus magainin. Format: cell-based.
Data set [9] concerns bacteria. Description: Activity against bacteria relative to magainin (applicants' observation). The data set is classed as cell-based. To be noted: three amino acid substitution versus magainin.
The test system of data set [10] is Castanea mollissima pollen. The data set is classed as cell-based. Conditions: pH 6.2. The protocol:
(§6) Pollen collections for Chinese chestnut (Castanea mollissima), tomato (Lycopersicon esculentum), and willow (Salix lucida) clone 507 were made in central New York. Chestnut catkins and tomato flowers were placed into paper bags in an ice chest. Within 2 hr after collection, catkins were cut into 1.0 cm segments and tomato anthers were placed into sterile 15 ml Falcon tubes. The tubes were "capped" with parafilm punctured with 12-15 holes and lyophilized for 24 hr. Lyophilized samples were stored at -20°C. until removed for rehydration.
(§7) To rehydrate, small amounts of pollen were placed in open microfuge tubes (1.5 ml) which were placed into a closed glass petri dish with a dampened tissue. Pollen was rehydrated overnight in a dark chamber at 14° C.
(§8) Rehydrated plant pollen was diluted with sucrose-boric acid medium ("SBM") to a concentration of 80 grains/μl (Neubauer hemocytometer). Media for pollen germination (SBM, pH 6.2) was prepared with deionized distilled water, sucrose (150 g/L), and boric acid (150 mg/L). Dilutions of all peptides tested against rehydrated pollen grains were aseptically prepared with sterile SBM. Aliquots (50 μl) of peptide solutions were aseptically placed in ELISA microtitre plates as before. Approximately 400 pollen grains (5 μl) were added to the 50 μl volume of peptide solution in the well to give the final peptide concentrations of 0, 1.25, 2.5, 5, 10, 15, 20, 25, 50, 100, 150, 200, and 250 μM. Microtitre plates were incubated in the dark at room temperature for 24 hr. […] All tests were repeated 4 or more times. Controls without peptides were included with all tests. The highest concentration tested was 250 μM.

The subject of data set [11] is Salix lucida pollen. Format: cell-based. To be noted: pH 6.2. The protocol: Willow pollen was extracted using the protocol described by de Niella and Maynard (1993). Catkins were gently stirred in carbon tetrachloride. The pollen/carbon tetrachloride suspension was filtered (Whatman filter paper) with suction. The pollen was transferred to microfuge tubes (1.5 ml) with a fine-bristle artist's brush and stored at -20° C.
as §7, §8

The subject of data set [12] is microorganisms and animal red blood cells. To be noted: cited from earlier work.
The subject of data set [13] is Lycopersicon esculentum pollen. Format: cell-based. To be noted: pH 6.2. The protocol: as §6, §7, §8
Data set [14] relates to Malus domestica pollen. Format: cell-based. To be noted: pH 6.2. The protocol: Apple (Malus domestica) cultivar "Empire" pollen was supplied by Susan Brown, Department of Horticultural Sciences, Cornell University, New York State Agricultural Experiment Station, Geneva, N.Y.
as §7, §8

The subject of data set [15] is Pseudomonas aeruginosa. Conditions: against Pseudomonas aeruginosa; cited from earlier work.
The conditions of data set [16]: combined with either magainin I or magainin II in a 1:1 molar ratio; cited from earlier work.

Consider XPF, for which, in [1], the “times more effective than PGLa” value is 2-2.5 times.
On to “(Ala^8,13,15)magainin II [Ala^8,13,15 Magainin II]”, for which the “MIC, Pseudomonas syringae” value in [2] was 250 µM. In addition, the “MIC, Cryphonectria parasitica” value in data set [3] was 30 µM. In [4], the “MIC, Septoria musiva” value turned out to be 10 µM. In addition, the “MIC, Erwinia amylovora” value in data set [5] turned out to be 250 µM. Moreover, in [6], the “MIC, Agrobacterium tumefaciens” value was 100 µM. The “MIC, Fusarium oxysporum” value in data set [7] worked out at 15 µM. The “change of magainin activity against selected filamentous fungi” value in [8] is “opposite effect”. The “change of magainin activity against bacteria” value in data set [9] is “increased magainin activity against bacteria”.
Consider `CSCC[C@H](N)C(=O)N[C@@H](C)C(=O)N[C@@H](CO)C(=O)N[C@@H](CCCNC(=N)N)C(=O)N[C@@H](C)C(=O)N[C@@H](C)C(=O)NCC(=O)N[C@@H](CC(C)C)C(=O)N[C@@H](C)C(=O)N[C@@H](C)C(=O)N[C@@H](CCCNC(=N)N)C(=O)N[C@@H](CC(C)C)C(=O)N[C@@H](C)C(=O)N[C@@H](CCCNC(=N)N)C(=O)N[C@@H](CC(C)C)C(=O)N[C@@H](C)C(=O)N[C@@H](CC(C)C)C(=O)N[C@@H](CCCNC(=N)N)C(=O)N[C@@H](C)C(=O)N[C@@H](CC(C)C)C(=O)O` [ESF1] (H-MASRAAGLAARLARLALRAL-OH), for which the “MIC, Castanea mollissima” value in data set [10] is more than 250 µM. Besides, the “MIC, Salix lucida” value in data set [11] is more than 250 µM.
On to Magainin I, for which the “MIC, Cryphonectria parasitica” value in [3] stood at 10 µM. The “MIC, Septoria musiva” value in [4] stood at 5 µM. Further, the “MIC, Fusarium oxysporum” value in data set [7] amounted to 15 µM.
`CSCC[C@H](N)C(=O)N[C@@H](C)C(=O)N[C@@H](CO)C(=O)N[C@@H](CCCNC(=N)N)C(=O)N[C@@H](C)C(=O)N[C@@H](C)C(=O)NCC(=O)N[C@@H](CC(C)C)C(=O)N[C@@H](C)C(=O)N[C@@H](CCCNC(=N)N)C(=O)N[C@@H](CCCNC(=N)N)C(=O)N[C@@H](CC(C)C)C(=O)N[C@@H](C)C(=O)N[C@@H](CCCNC(=N)N)C(=O)N[C@@H](CC(C)C)C(=O)N[C@@H](C)C(=O)N[C@@H](CCCNC(=N)N)C(=O)N[C@@H](CCCNC(=N)N)C(=O)N[C@@H](C)C(=O)N[C@@H](CC(C)C)C(=O)O` [ESF5] (H-MASRAAGLARRLARLARRAL-OH): in data set [10], the “MIC, Castanea mollissima” value is more than 250 µM. Besides, the “MIC, Salix lucida” value in data set [11] was more than 250 µM.
For the molecule `CSCC[C@H](N)C(=O)N[C@@H](C)C(=O)N[C@@H](C)C(=O)N[C@@H](CCCNC(=N)N)C(=O)N[C@@H](C)C(=O)N[C@@H](C)C(=O)NCC(=O)N[C@@H](CC(C)C)C(=O)N[C@@H](C)C(=O)N[C@@H](C)C(=O)N[C@@H](CCCNC(=N)N)C(=O)N[C@@H](CC(C)C)C(=O)N[C@@H](C)C(=O)N[C@@H](C)C(=O)N[C@@H](CC(C)C)C(=O)N[C@@H](C)C(=O)N[C@@H](CC(C)C)C(=O)N[C@@H](CCCNC(=N)N)C(=O)N[C@@H](C)C(=O)N[C@@H](CC(C)C)C(=O)O` [ESF6] (H-MAARAAGLAARLAALALRAL-OH), the “MIC, Castanea mollissima” value in data set [10] was more than 250 µM. For the same molecule, the “MIC, Salix lucida” value in data set [11] was more than 250 µM.
Take `CC[C@H](C)[C@H](NC(=O)CN)C(=O)NCC(=O)N[C@@H](C)C(=O)N[C@H](C(=O)N[C@@H](CC(C)C)C(=O)N[C@@H](CCCCN)C(=O)N[C@H](C(=O)N[C@@H](CC(C)C)C(=O)N[C@H](C(=O)N[C@H](C(=O)NCC(=O)N[C@@H](CC(C)C)C(=O)N1CCC[C@H]1C(=O)N[C@@H](C)C(=O)N[C@@H](CC(C)C)C(=O)N[C@H](C(=O)N[C@@H](CO)C(=O)N[C@@H](Cc1c[nH]c2ccccc12)C(=O)N[C@H](C(=O)N[C@@H](CCCCN)C(=O)N[C@@H](CCCNC(=N)N)C(=O)N[C@@H](CCCCN)C(=O)N[C@@H](CCCNC(=N)N)C(=O)N[C@@H](CCC(N)=O)C(=O)N[C@@H](CCC(N)=O)C(N)=O)[C@@H](C)CC)[C@@H](C)CC)[C@@H](C)O)[C@@H](C)O)C(C)C)C(C)C` [melittin]: the lytic activity result in data set [12] is given as “very lytic”.
With `CSCC[C@H](N)C(=O)N[C@@H](C)C(=O)N[C@@H](CO)C(=O)N[C@@H](CCCNC(=N)N)C(=O)N[C@@H](C)C(=O)N[C@@H](C)C(=O)NCC(=O)N[C@@H](CC(C)C)C(=O)N[C@@H](C)C(=O)N[C@@H](C)C(=O)N[C@@H](CCCNC(=N)N)C(=O)N[C@@H](CC(C)C)C(=O)N[C@@H](C)C(=O)N[C@@H](CCCNC(=N)N)C(=O)N[C@@H](CC(C)C)C(=O)N[C@@H](C)C(=O)N[C@@H](CC(C)C)C(=O)N[C@@H](CCCNC(=N)N)C(=O)O` [ESF12] (H-MASRAAGLAARLARLALR-OH), in data set [13], the “MIC, Lycopersicon esculentum” value is more than 250 µM. Besides, the “MIC, Castanea mollissima” value in data set [10] was more than 250 µM. Also, in [11], the “MIC, Salix lucida” value was more than 250 µM. Besides, the “MIC, Malus domestica” value in data set [14] is more than 250 µM.
As to PGLa, the “times more active than XPF” value in data set [15] is listed as 4-5 times. Further, the “increase of antimicrobial activity” value in data set [16] is recorded as 20-50 fold.
Turning to cecropin B, in [3], the “MIC, Cryphonectria parasitica” value stood at 15 µM. The “MIC, Septoria musiva” value in [4] came out at 5 µM. Moreover, the “MIC, Fusarium oxysporum” value in data set [7] was 20 µM.
